# Laboratory results reported in US20260297542A1, “HERBICIDE RESISTANT PLANTS” (SYNGENTA CROP PROTECTION AG, priority 2023, published 2026).
# Substitutions are numbered along the chain they refer to.
# Assays:
# Assay in all cases: E. coli hemG growth inhibition by herbicide, AtPPO1 variant
# Type in all cases: cell-based
# Details in all cases: read-out: percentage growth inhibition
# AtPPO1 P271C = molecular target: T1, AtPPO1 P271C (Arabidopsis thaliana, UniProt P55826, P271C)
# T1 construct: expressed in transfected cells; host or cells: E. coli BL21(DE3) hemG (hemG replaced by CmR), pET24a plasmid
# T1 sequence (P55826 35-537 P271C): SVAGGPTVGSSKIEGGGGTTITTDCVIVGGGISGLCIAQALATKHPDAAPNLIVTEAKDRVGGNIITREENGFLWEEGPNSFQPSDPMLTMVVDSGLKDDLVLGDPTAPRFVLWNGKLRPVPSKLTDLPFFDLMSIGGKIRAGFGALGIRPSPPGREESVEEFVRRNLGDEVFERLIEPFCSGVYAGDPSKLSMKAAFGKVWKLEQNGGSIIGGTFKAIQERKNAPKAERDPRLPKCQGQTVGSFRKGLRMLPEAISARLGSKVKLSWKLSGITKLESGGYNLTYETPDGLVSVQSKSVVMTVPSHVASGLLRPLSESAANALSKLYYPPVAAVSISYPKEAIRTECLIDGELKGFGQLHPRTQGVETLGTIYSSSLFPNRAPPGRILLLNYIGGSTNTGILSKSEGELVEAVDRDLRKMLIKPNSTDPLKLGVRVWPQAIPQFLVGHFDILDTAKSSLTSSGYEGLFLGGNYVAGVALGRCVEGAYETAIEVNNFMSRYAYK
# Procedure, shortened: (§1)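 Read-out is OD600 at 24 h post inoculation, converted to percent growth inhibition relative to DMSO. The hemG-deleted BL21(DE3) host relied on the plasmid-borne AtPPO1 variant, induced with 0.1 mM IPTG, with 6.25 ppm herbicide 0 or E or 0.78 ppm herbicide B present at 37° C.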
# AtPPO1 G481K = molecular target: T2, AtPPO1 G481K (Arabidopsis thaliana, UniProt P55826, G481K)
# T2 construct: expressed in transfected cells; host or cells: E. coli BL21(DE3) hemG, pET24a plasmid
# T2 sequence (P55826 35-537 G481K): T1 sequence (P55826 35-537 P271C) with C237P, G447K
# Procedure, shortened: as §1
# AtPPO1 P154Y = molecular target: T3, AtPPO1 P154Y (Arabidopsis thaliana, UniProt P55826, P154Y)
# T3 construct: expressed in transfected cells; host or cells: E. coli BL21(DE3) hemG (hemG replaced by CmR), pET24a plasmid
# T3 sequence (P55826 35-537 P154Y): T1 sequence (P55826 35-537 P271C) with P120Y, C237P
# Procedure, shortened: as §1
# AtPPO1 Y361R = molecular target: T4, AtPPO1 Y361R (Arabidopsis thaliana, UniProt P55826, Y361R)
# T4 sequence (P55826 35-537 P363R/Y361R): T1 sequence (P55826 35-537 P271C) with C237P
# Procedure, shortened: as §1
Structure (SMILES),inhibition at 6.25 ppm (AtPPO1 P271C) [%],inhibition at 6.25 ppm (AtPPO1 G481K) [%],inhibition at 6.25 ppm (AtPPO1 P154Y) [%],inhibition at 6.25 ppm (AtPPO1 Y361R) [%],inhibition at 0.78 ppm (AtPPO1 P271C) [%],inhibition at 0.78 ppm (AtPPO1 G481K) [%],inhibition at 0.78 ppm (AtPPO1 P154Y) [%],inhibition at 0.78 ppm (AtPPO1 Y361R) [%]
"CCOC(=O)[C@]1(C)CC(c2cc(-n3c(=O)n(C)c(=S)n(C)c3=O)c(F)cc2Cl)=NO1 [Herbicide D, ethyl (5S)-3-[2-chloro-5-(3,5-dimethyl-2,6-dioxo-4-thioxo-1,3,5-triazinan-1-yl)-4-fluoro-phenyl]-5-methyl-4H-isoxazole-5-carboxylate]",24,12,38,43,–,–,–,–
"C#CCN1C(=O)C(F)(F)Oc2cc(F)c(-n3c(=O)n(C)c(=S)n(C)c3=O)cc21 [Herbicide B, trifludimoxazin]",–,–,–,–,24,10,34,36
"CC(C)N(C)S(=O)(=O)NC(=O)c1cc(-n2c(=O)cc(C(F)(F)F)n(C)c2=O)c(F)cc1Cl [Herbicide E, saflufenacil]",66,0,68,56,–,–,–,–
